Assay results as given in patent publication US6759207B2, “Fluorogenic or fluorescent reporter molecules and their applications for whole-cell fluorescence screening assays for caspases and other enzymes and the use thereof” (Cytovia, Inc., priority 1997, dated 2004).

Legend:
[1] = Fluorescence of modified Rhodamine dyes (spectrometry and spectrofluorometry); type: physicochemical
Experimental: Modified Rhodamine dyes were evaluated using both conventional spectrometry and spectrofluorometry. For both types of analysis the dyes were dissolved in either methanol or 50 mM Tris at final dye concentrations ranging from 10 nM to 100 μM. An absorbance spectrum from wavelengths of 200 nm to 700 nm was determined for each dye using a Beckman DU-7000 spectrophotometer. The dyes all had absorbance peaks at around 470 to 480 nm. This wavelength was chosen as the fluorescence excitation wavelength and a full fluorescence emission spectrum was determined using a Hitachi F-2000 spectrofluorometer. For each dye, the emission peak was around 520 nm and the fluorescent output was measured under the conditions tested (see Table 1).

[2] = test system: HL-60 cells; test: Uptake and retention of modified Rhodamine dyes by HL-60 cells (epifluorescence microscopy); type: cell-based; conditions: 10 μM or 50 μM dye; for staining of HL-60 cells: 37° C., serum-free Iscove's medium; for leakage of the dye into the medium / retention in cells: after washing
Experimental: HL-60 cells were placed in 5 ml of Iscove's medium (without serum or phenol-red) containing 10 μM or 50 μM N-octyloxycarbonyl-Rhodamine 110, N-decyloxycarbonyl-Rhodamine-110, N-dodecyloxycarbonyl-Rhodamine-110, N-hexyloxycarbonyl-Rhodamine-110, N-(ethylthio)carbonyl-Rhodamine 110 or Rhodamine 110. The cells were incubated for varying times at 37° C. in a CO2 incubator, recovered by centrifugation, and washed in 50 mL of ice-cold medium. The cells were re-centrifuged and the final pellet was resuspended in 50 μL of fresh medium. Aliquots of each cell suspension were placed in microslides and viewed on a Nikon inverted microscope with epifluorescent illumination.

| Compound | Peak Emission Wavelength ([1]; Test Conc. 1 μM, Tris) [nm] | Peak Excitation Wavelength ([1]; Test Conc. 1 μM, Tris) [nm] | Signal Amplitude ([1]; Test Conc. 1 μM, Tris) | staining of HL-60 cells [2] | leakage of the dye into the medium / retention in cells [2] | Peak Emission Wavelength ([1]; Test Conc. 1 μM, MeOH) [nm] | Peak Excitation Wavelength ([1]; Test Conc. 1 μM, MeOH) [nm] | Signal Amplitude ([1]; Test Conc. 1 μM, MeOH) | also measured |
| --- | --- | --- | --- | --- | --- | --- | --- | --- | --- |
| COCCOCCOCCOC(=O)Nc1ccc2c(c1)Oc1cc(N)ccc1C21OC(=O)c2ccccc21 (stereo not drawn) [N-(2,5,8-Trioxadecyloxycarbonyl)-Rhodamine 110] | 520 | 485 | 2841 | – | – | – | – | – | – |
| CCCCOCCOC(=O)Nc1ccc2c(c1)Oc1cc(N)ccc1C21OC(=O)c2ccccc21 (stereo not drawn) [N-(2-Butoxyethoxy)carbonyl-Rhodamine 110, N-(2-Butoxyethoxycarbonyl)-Rhodamine 110] | 520 | 470 | 2047 | – | – | – | – | – | – |
| CCSC(=O)Nc1ccc2c(c1)Oc1cc(N)ccc1C21OC(=O)c2ccccc21 (stereo not drawn) [N-(Ethylthio)carbonyl-Rhodamine 110] | 520 | 490 | 2430 | moderate, but still easily detectable staining | slight leakage | – | – | – | – |
| CCCCCCSC(=O)Nc1ccc2c(c1)Oc1cc(N)ccc1C21OC(=O)c2ccccc21 (stereo not drawn) [N-(Hexylthio)carbonyl-Rhodamine 110] | – | – | – | – | – | 530 | 490 | 650 | – |
| CCCCCCN(C)C(=O)Nc1ccc2c(c1)Oc1cc(N)ccc1C21OC(=O)c2ccccc21 (stereo not drawn) [N-(N-Hexyl-N-methylcarbamyl)-Rhodamine 110] | 520 | 470 | 1466 | – | – | – | – | – | – |
| CCCCCCCCSC(=O)Nc1ccc2c(c1)Oc1cc(N)ccc1C21OC(=O)c2ccccc21 (stereo not drawn) [N-(Octylthio)carbonyl-Rhodamine 110, N-(Octylthio)carbonyl Rhodamine 110] | – | – | – | – | – | 520 | 470 | 471 | – |
| CCCCCCCCCCOC(=O)Nc1ccc2c(c1)Oc1cc(N)ccc1C21OC(=O)c2ccccc21 (stereo not drawn) [N-Decyloxycarbonyl-Rhodamine 110, N-Decyloxycarbonyl-Rhodamine-110] | – | – | – | stained HL-60 cells intensely | almost no leakage of the dye into the medium | 520 | 475 | 827 | – |
| CN(C)C(=O)Nc1ccc2c(c1)Oc1cc(N)ccc1C21OC(=O)c2ccccc21 (stereo not drawn) [N-Dimethylcarbamyl-Rhodamine-110, N-Dimethylcarbamyl-Rhodamine 110] | – | – | – | – | – | – | – | – | Peak Emission Wavelength ([1]; Test Conc. 0.1 μM, Tris): 520 nm; Peak Excitation Wavelength ([1]; Test Conc. 0.1 μM, Tris): 490 nm; Signal Amplitude ([1]; Test Conc. 0.1 μM, Tris): 446 |
| CCCCCCCCCCCCOC(=O)Nc1ccc2c(c1)Oc1cc(N)ccc1C21OC(=O)c2ccccc21 (stereo not drawn) [N-Dodecyloxycarbonyl-Rhodamine 110, N-Dodecyloxycarbonyl-Rhodamine-110] | – | – | – | stained HL-60 cells intensely | almost no leakage of the dye into the medium | 520 | 480 | 640 | – |
| CCOC(=O)Nc1ccc2c(c1)Oc1cc(N)ccc1C21OC(=O)c2ccccc21 (stereo not drawn) [N-Ethoxycarbonyl-Rhodamine 110] | 520 | 485 | 3070 | – | – | – | – | – | – |
| CCCCCCOC(=O)Nc1ccc2c(c1)Oc1cc(N)ccc1C21OC(=O)c2ccccc21 (stereo not drawn) [N-Hexyloxycarbonyl-Rhodamine 110, N-Hexyloxycarbonyl-Rhodamine-110] | – | – | – | stained HL-60 cells less intensely | still well-retained | – | – | – | Peak Emission Wavelength ([1]; Test Conc. 0.1 μM, MeOH): 520 nm; Peak Excitation Wavelength ([1]; Test Conc. 0.1 μM, MeOH): 465 nm; Signal Amplitude ([1]; Test Conc. 0.1 μM, MeOH): 109 |
| COC(=O)Nc1ccc2c(c1)Oc1cc(N)ccc1C21OC(=O)c2ccccc21 (stereo not drawn) [N-Methoxycarbonyl-Rhodamine 110] | – | – | – | – | – | – | – | – | Peak Emission Wavelength ([1]; Test Conc. 0.1 μM, Tris): 520 nm; Peak Excitation Wavelength ([1]; Test Conc. 0.1 μM, Tris): 470 nm; Signal Amplitude ([1]; Test Conc. 0.1 μM, Tris): 254 |
| CS(=O)(=O)Nc1ccc2c(c1)Oc1cc(N)ccc1C21OC(=O)c2ccccc21 (stereo not drawn) [N-Methylsulfonyl-Rhodamine-110, N-Methylsulfonyl-Rhodamine 110] | 520 | 485 | 988 | – | – | – | – | – | – |
| CCCCCCCCOC(=O)Nc1ccc2c(c1)Oc1cc(N)ccc1C21OC(=O)c2ccccc21 (stereo not drawn) [N-Octyloxycarbonyl-Rhodamine 110] | – | – | – | stained HL-60 cells intensely | almost no leakage of the dye into the medium | 520 | 470 | 850 | – |
| Cl.N=c1ccc2c(-c3ccccc3C(=O)O)c3ccc(N)cc3oc-2c1 [Rhodamine 110, reference compound] | – | – | – | low intensity of cellular staining | quickly leaked out of the cells | – | – | – | Peak Emission Wavelength ([1]; Test Conc. 0.01 μM, Tris): 520 nm; Peak Excitation Wavelength ([1]; Test Conc. 0.01 μM, Tris): 490 nm; Signal Amplitude ([1]; Test Conc. 0.01 μM, Tris): 284 |
| N-Acetyl-Rhodamine 116 | 530 | 470 | 644 | – | – | – | – | – | – |
